From the supplement of paper PMC13380429

Legend:
[1] = tested on: A549-ACE2 infected with SARS-CoV-2; assay: cell count relative to DMSO; higher = less toxic; conditions: 24 h
[2] = tested on: Vero E6; assay: relative viability EC50 (midpoint between 100% and the lowest measured viability); higher = less toxic; conditions: 72 h
[3] = tested on: HepG2; assay: as above; conditions: 72 h
[4] = tested on: Calu-3; assay: as above; conditions: 72 h
[5] = tested on: U2OS; assay: as above; conditions: 72 h
[6] = tested on: A549-ACE2 infected with SARS-CoV-2; assay: morphology score (similarity to uninfected cells); higher = more like uninfected cells; conditions: 24 h
[7] = tested on: A549-ACE2; assay: drug-induced phospholipidosis relative to tamoxifen; higher = more phospholipidosis
[8] = tested on: Caco-2; assay: cell viability relative to DMSO; higher = less toxic; conditions: 72 h
[9] = tested on: Vero E6; assay: as above; conditions: 72 h
[10] = tested on: HepG2; assay: as above; conditions: 72 h
[11] = tested on: Calu-3; assay: as above; conditions: 72 h
[12] = tested on: U2OS; assay: as above; conditions: 72 h
[13] = tested on: A549-ACE2; assay: phospholipidosis EC50; higher = less potent phospholipidosis inducer
[14] = tested on: Caco-2; assay: drug sensitivity score (DSS) for viability; higher = more toxic; extreme values may be limits of the assay; conditions: 72 h
[15] = tested on: Vero E6; assay: as above; conditions: 72 h
[16] = tested on: HepG2; assay: as above; conditions: 72 h
[17] = tested on: Calu-3; assay: as above; conditions: 72 h
[18] = tested on: U2OS; assay: as above; conditions: 72 h
[19] = tested on: A549-ACE2 infected with SARS-CoV-2; assay: SARS-CoV-2 infection rate relative to DMSO; higher = more infection; conditions: 24 h
[20] = tested on: Caco-2; assay: relative viability EC50 (midpoint between 100% and the lowest measured viability); higher = less toxic; conditions: 72 h

COc1ccc(NC(=O)c2ccc(-c3ccc(-c4noc(C)n4)cc3C)cc2)cc1OCCN(C)C
Conditions | SARS-CoV-2 infection rate [%] | cell count [%] | cell viability [%] | morphology score | phospholipidosis EC50 [µM]
[1], 0.1 µM | – | 102 | – | – | –
[1], 0.3 µM | – | 99 | – | – | –
[1], 1 µM | – | 109 | – | – | –
[1], 3 µM | – | 126 | – | – | –
[6], 0.1 µM | – | – | – | -0.01 | –
[6], 0.3 µM | – | – | – | 0.09 | –
[6], 1 µM | – | – | – | 0.43 | –
[6], 3 µM | – | – | – | 0.77 | –
[8], 1 nM | – | – | 101 | – | –
[8], 10 nM | – | – | 102 | – | –
[8], 100 nM | – | – | 104 | – | –
[8], 1000 nM | – | – | 92.4 | – | –
[8], 10000 nM | – | – | 54 | – | –
[9], 1 nM | – | – | 98.1 | – | –
[9], 10 nM | – | – | 98 | – | –
[9], 100 nM | – | – | 96.7 | – | –
[9], 1000 nM | – | – | 93.1 | – | –
[9], 10000 nM | – | – | 20.1 | – | –
[10], 1 nM | – | – | 121 | – | –
[10], 10 nM | – | – | 95.5 | – | –
[10], 100 nM | – | – | 109 | – | –
[10], 1000 nM | – | – | 90.1 | – | –
[10], 10000 nM | – | – | 6.6 | – | –
[11], 1 nM | – | – | 101 | – | –
[11], 10 nM | – | – | 102 | – | –
[11], 100 nM | – | – | 105 | – | –
[11], 1000 nM | – | – | 92.5 | – | –
[11], 10000 nM | – | – | 11.2 | – | –
[12], 1 nM | – | – | 101 | – | –
[12], 10 nM | – | – | 105 | – | –
[12], 100 nM | – | – | 101 | – | –
[12], 1000 nM | – | – | 102 | – | –
[12], 10000 nM | – | – | 44.7 | – | –
[13], 24 h | – | – | – | – | 1
[13], 48 h | – | – | – | – | 2.13
[13], 72 h | – | – | – | – | 3.02
[19], 0.1 µM | 97 | – | – | – | –
[19], 0.3 µM | 95 | – | – | – | –
[19], 1 µM | 82 | – | – | – | –
[19], 3 µM | 26 | – | – | – | –

Conditions | drug sensitivity score | relative viability EC50 [µM]
[2] | – | 2.45
[3] | – | 2.29
[4] | – | 2.47
[5] | – | 3.33
[14] | 3.7 | –
[15] | 5.5 | –
[16] | 6.8 | –
[17] | 6.1 | –
[18] | 2.8 | –

drug-induced phospholipidosis [%], [7]
Conditions | 0.3 µM | 0.833333 µM | 3.33333 µM | 6.66667 µM | 10 µM
24 h | 2.56 | 13.6 | 76.9 | 75.2 | 56
48 h | 4.9 | 6.68 | 68 | 79.2 | –
72 h | 5.85 | 5.56 | 57.7 | 86.2 | –

NC1(Cc2ccc(Cl)cc2)CCN(c2ncnc3[nH]ccc23)CC1
Conditions | SARS-CoV-2 infection rate [%] | cell count [%] | cell viability [%] | morphology score | phospholipidosis EC50 [µM]
[1], 0.1 µM | – | 104 | – | – | –
[1], 0.3 µM | – | 105 | – | – | –
[1], 1 µM | – | 104 | – | – | –
[1], 3 µM | – | 105 | – | – | –
[6], 0.1 µM | – | – | – | 0.13 | –
[6], 0.3 µM | – | – | – | -0.05 | –
[6], 1 µM | – | – | – | 0.15 | –
[6], 3 µM | – | – | – | 0.48 | –
[8], 1 nM | – | – | 93.7 | – | –
[8], 10 nM | – | – | 109 | – | –
[8], 100 nM | – | – | 95.4 | – | –
[8], 1000 nM | – | – | 98.2 | – | –
[8], 10000 nM | – | – | 81.7 | – | –
[9], 1 nM | – | – | 97.6 | – | –
[9], 10 nM | – | – | 100 | – | –
[9], 100 nM | – | – | 96.8 | – | –
[9], 1000 nM | – | – | 88.5 | – | –
[9], 10000 nM | – | – | 65.3 | – | –
[10], 1 nM | – | – | 100 | – | –
[10], 10 nM | – | – | 102 | – | –
[10], 100 nM | – | – | 94.5 | – | –
[10], 1000 nM | – | – | 91.1 | – | –
[10], 10000 nM | – | – | 26.3 | – | –
[11], 1 nM | – | – | 95.4 | – | –
[11], 10 nM | – | – | 99.9 | – | –
[11], 100 nM | – | – | 100 | – | –
[11], 1000 nM | – | – | 105 | – | –
[11], 10000 nM | – | – | 77.5 | – | –
[12], 1 nM | – | – | 96.9 | – | –
[12], 10 nM | – | – | 101 | – | –
[12], 100 nM | – | – | 93 | – | –
[12], 1000 nM | – | – | 95 | – | –
[12], 10000 nM | – | – | 52.6 | – | –
[13], 24 h | – | – | – | – | 5.25
[13], 48 h | – | – | – | – | 7.16
[13], 72 h | – | – | – | – | 8.44
[19], 0.1 µM | 99 | – | – | – | –
[19], 0.3 µM | 106 | – | – | – | –
[19], 1 µM | 104 | – | – | – | –
[19], 3 µM | 85 | – | – | – | –

Conditions | drug sensitivity score | relative viability EC50 [µM]
[3] | – | 2.18
[4] | – | > 10
[14] | 0.7 | –
[15] | 3 | –
[16] | 5.6 | –
[17] | 0.5 | –
[18] | 3.3 | –
[20] | – | > 10

drug-induced phospholipidosis [%], [7]
Conditions | 0.3 µM | 0.833333 µM | 3.33333 µM | 6.66667 µM | 10 µM | 30 µM
24 h | 2.53 | 6.69 | 24.4 | 64.2 | 86.2 | 95.1
48 h | 0.01 | -2.52 | 9.67 | 37.5 | 65.9 | 86.8
72 h | -2.31 | -5.85 | 5.48 | 20.6 | 47.9 | 73.3
